Here are results for 41 molecules from patent US20210163453A1, “DERIVATIVES OF PAPAVERINE THAT ARE EFFECTIVE HYPOXIC TUMOR RADIOSENSITIZERS” (Ohio State Innovation Foundation, priority 2018, published 2021).

One assay deals with mitochondrial complex 1. The assay can be described thus: Seahorse OCR inhibition of PPV derivatives, normalized to PPV. The format is cell-based. The settings on record: Seahorse; for Inhibitory activity OCR % of PPV: OCR inhibition at 10 μM concentration, normalized to PPV. The method, then: FIGS. 7A-7D show OCR and cellular toxicity data. […]. Bars represent mean OCR and PDE10 inhibitory activities from at least 5 (OCR) or 3 (PDE) replicates. All experiments were repeated at least twice. […] Values are mean+−SEM.
(§1) Seahorse analysis of the OCR. Oxygen consumption rate (OCR) was measured using Seahorse XF96 Flux Analyzer (Agilent Technologies). The cells were seeded to attach overnight, wells were washed with pre-warmed XF Calibrant (Agilent Technologies) and the replaced with unbuffered Assay Medium (pH 7.4, 5 mM glucose, 1 mM L-glutamine). The plates were incubated at 37° C. in a CO2-free incubator for 2 hours prior to assay. For succinate rescue assay, cells were permeabilized using XF Plasma Membrane Permeabilizer Reagent (XF PMP, Agilent Technologies) according to the manufacturer's instructions. The OCR rate was measured in 1× Mitochondrial Assay Solution (MAS) (70 mM sucrose, 220 mM mannitol, 10 mM KH2PO4, 5 mM MgCl2, 2 mM Hepes, 0.6% (w/v) fatty acid-free BSA and 1 mM EGTA; pH 7.4). After baseline oxygenation was established, 1 μM rotenone or 10 μM PPV was injected at time A, followed by 5 mM succinate at time B. Error bars represent standard deviation. For the washout experiment, EO771 cells were seeded overnight, then treated with 10 μM PPV or 1 μM rotenone 3 hours prior to OCR measurement. Media was replaced 1 and 2 hours before measurement and OCR reported.
Because PPV's effect on mitochondrial function is independent of cAMP levels it was reasoned that there are two activities in PPV, one inhibiting complex 1 and one inhibiting PDE10A that may reside in different parts of the molecule. The structure activity relationship of PPV relative to two assays was assessed: inhibition of cellular OCR by Seahorse, and inhibition of PDE10A by purified enzyme activity in multiwell plate (PDE10A activity assay kit, BPS Bioscience). Because PPV can compete with rotenone as complex 1 inhibitors, it was reasoned that they may be binding the same site and therefore the structures would be similar relative to the mitochondrial binding target. […] Because the top was a planar structure similar to that of rotenone, and they compete with each other for the same binding pocket on complex 1 (FIG. 10) the lower portion of the molecule and how it may resemble rotenone were investigated in more detail. It was established that flexible linkage was preferred for mitochondrial activity and bulky adducts to the lower benzene ring may block it (FIG. 7C). […] These lead compounds were synthesized from commercial precursors and purified on silica gel column. Structures were confirmed by ^1H NMR and found to be >95% pure by HPLC.

A further assay addresses T1, PDE10A (Homo sapiens, UniProt Q9Y233).
T1 construct: purchased BPS Bioscience
The experiment in a line: PDE10A enzymatic assay (PDE10A activity assay kit, BPS Bioscience). The format is biochemical. The settings on record: for Inhibitory activity PDE10A % of PPV: PDE10A inhibition at 1 μM, normalized to PPV. The method, then:
FIGS. 7A-7D show OCR and cellular toxicity data. […] Bars represent mean OCR and PDE10 inhibitory activities from at least 5 (OCR) or 3 (PDE) replicates. All experiments were repeated at least twice. […] Values are mean+−SEM. […]
The structure activity relationship of PPV relative to two assays was assessed: inhibition of cellular OCR by Seahorse, and inhibition of PDE10A by purified enzyme activity in multiwell plate (PDE10A activity assay kit, BPS Bioscience). […] These lead compounds were synthesized from commercial precursors and purified on silica gel column.

Assay [1] concerns oxygen consumption (mitochondrial function). The assay can be described thus: Seahorse XF analysis of oxygen consumption in vitro, cell line not stated. The format is cell-based. The method, then:
as §1

T1 sequence (Q9Y233 267-1055): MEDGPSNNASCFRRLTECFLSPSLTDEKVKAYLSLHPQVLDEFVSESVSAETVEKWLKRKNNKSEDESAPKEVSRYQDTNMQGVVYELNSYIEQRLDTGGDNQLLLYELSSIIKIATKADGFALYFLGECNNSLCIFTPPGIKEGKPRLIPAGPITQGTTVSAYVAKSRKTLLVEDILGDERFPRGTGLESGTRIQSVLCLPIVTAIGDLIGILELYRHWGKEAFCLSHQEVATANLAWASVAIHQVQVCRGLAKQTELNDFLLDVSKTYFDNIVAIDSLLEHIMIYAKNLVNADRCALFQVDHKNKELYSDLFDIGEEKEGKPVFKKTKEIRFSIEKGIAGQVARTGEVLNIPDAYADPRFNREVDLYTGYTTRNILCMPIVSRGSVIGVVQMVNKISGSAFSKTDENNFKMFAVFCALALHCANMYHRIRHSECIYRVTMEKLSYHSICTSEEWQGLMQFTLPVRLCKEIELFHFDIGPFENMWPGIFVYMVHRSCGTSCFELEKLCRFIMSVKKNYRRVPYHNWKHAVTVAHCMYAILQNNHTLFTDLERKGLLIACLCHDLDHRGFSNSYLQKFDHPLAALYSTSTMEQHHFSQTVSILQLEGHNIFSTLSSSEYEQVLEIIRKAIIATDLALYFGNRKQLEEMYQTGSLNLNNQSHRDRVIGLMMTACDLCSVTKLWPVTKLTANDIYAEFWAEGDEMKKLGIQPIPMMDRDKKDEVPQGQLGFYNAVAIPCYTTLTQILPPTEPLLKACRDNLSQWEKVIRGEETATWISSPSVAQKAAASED

Turning to `COc1cc2ccnc(C(=O)c3ccc4c(c3)OCO4)c2cc1OC`, in the assay on mitochondrial complex 1, the “Inhibitory activity OCR % of PPV” value is 5.55 % of PPV. For the same molecule, on PDE10A, the “Inhibitory activity PDE10A % of PPV” value is reported as 51.12 % of PPV.
The corresponding values for `COc1cc2ccnc(C(O)c3cc(C(F)(F)F)cc(C(F)(F)F)c3)c2cc1OC` (stereo not shown) are 48.27 % of PPV and 16.58 % of PPV.
As to `COc1cc2ccnc(C(=O)c3ccc(C)c(C)c3)c2cc1OC`, the “Inhibitory activity OCR % of PPV” value with mitochondrial complex 1 was 9.64 % of PPV.
With `COc1cc2ccnc(C(O)c3cc(OC)c(OC)c(OC)c3)c2cc1OC` (stereo not shown), in the assay on mitochondrial complex 1, the “Inhibitory activity OCR % of PPV” value is given as 34.09 % of PPV. Further, on PDE10A, the “Inhibitory activity PDE10A % of PPV” value was 72.86 % of PPV.
Turning to `COc1cc2ccnc(Cc3cc(C(F)(F)F)cc(C(F)(F)F)c3)c2cc1OC`, in the assay on mitochondrial complex 1, the “Inhibitory activity OCR % of PPV” value was 33.4 % of PPV. The “Inhibitory activity PDE10A % of PPV” value at PDE10A is listed as 10.28 % of PPV.
Taken in the same sequence, the figures for `COc1cc2ccnc(C(=O)c3cc(C(F)(F)F)cc(C(F)(F)F)c3)c2cc1OC` were 0 % of PPV and 17.69 % of PPV.
`[H]/N=C(/N)N/C(=N/[H])NCCc1ccccc1` [phenformin]: the “inhibition of oxygen consumption / mitochondrial function in vitro” value in assay [1] is on record as “effective at inhibiting oxygen consumption”.
Consider `COc1ccc(C(O)c2nccc3cc(OC)c(OC)cc23)cc1` (stereo not shown), for which, in the assay with mitochondrial complex 1, the “Inhibitory activity OCR % of PPV” value was 70.45 % of PPV. For the same molecule, the “Inhibitory activity PDE10A % of PPV” value on PDE10A is given as 35.44 % of PPV.
Taken in the same sequence, the figures for `COc1cc2ccnc(C(O)c3cc(C)cc(C)c3)c2cc1OC` (stereo not shown) were 23.40 % of PPV and 0 % of PPV.
The corresponding values for `COc1ccc(C(=O)c2nccc3cc(OC)c(OC)cc23)cc1` are 29.55 % of PPV and 65.88 % of PPV.
The corresponding values for `COc1cc2ccnc(C(O)c3cccc4ccccc34)c2cc1OC` (stereo not shown) are 18 % of PPV and 24.24 % of PPV.
With `COc1cc2ccnc(C(O)c3ccc4ccccc4c3)c2cc1OC` (stereo not shown), the “Inhibitory activity OCR % of PPV” value in the assay with mitochondrial complex 1 was 29.26 % of PPV. The “Inhibitory activity PDE10A % of PPV” value on PDE10A was 70.84 % of PPV.
Taken in the same sequence, the figures for `COc1cc2ccnc(C(O)c3cc(C)c(OC)c(C)c3)c2cc1OC` (stereo not shown) were 10.35 % of PPV and 29.18 % of PPV.
Taken in the same sequence, the figures for `COc1ccc(-c2nccc3cc(OC)c(OC)cc23)cc1OC` were 3.64 % of PPV and 69.55 % of PPV.
Taken in the same sequence, the figures for `COc1ccc(OCc2nccc3cc(OC)c(OC)cc23)cc1OC` were 72.05 % of PPV and 17.18 % of PPV.
For the molecule `COc1cc2c(cc1OC)C(Cc1cc(C)c(OC)c(C)c1)=NCC2`, the “Inhibitory activity OCR % of PPV” value in the assay with mitochondrial complex 1 is recorded as 14.81 % of PPV. For the same molecule, the “Inhibitory activity PDE10A % of PPV” value on PDE10A is listed as 37.27 % of PPV.
Taken in the same sequence, the figures for `COc1ccc(CCc2nccc3cc(OC)c(OC)cc23)cc1OC` were 5.94 % of PPV and 20.16 % of PPV.
Take `COc1cc2ccnc(C(O)c3ccccc3)c2cc1OC` (stereo not shown): the “Inhibitory activity OCR % of PPV” value with mitochondrial complex 1 is 12.07 % of PPV. For the same molecule, the “Inhibitory activity PDE10A % of PPV” value on PDE10A is on record as 23.60 % of PPV.
The corresponding values for `C=C(C)COc1c(C)cc(Cc2nccc3cc(OC)c(OC)cc23)cc1C` are 74.81 % of PPV and 59.69 % of PPV.
As to `COc1cc2ccncc2cc1OC` [DMIQ, reference compound], in the assay with mitochondrial complex 1, the “activity in cellular OCR assay” value was “inactive” and the “Inhibitory activity OCR % of PPV” value is recorded as 0 % of PPV. Also, on PDE10A, the “Inhibitory activity PDE10A % of PPV” value is 0 % of PPV. The “activity in PDE10A assay” value at PDE10A (purified enzyme) is “inactive”.
For `C=C(C)COc1c(C)cc(C(=O)c2nccc3cc(OC)c(OC)cc23)cc1C`, the “Inhibitory activity OCR % of PPV” value with mitochondrial complex 1 was 15.51 % of PPV. Besides, the “Inhibitory activity PDE10A % of PPV” value at PDE10A is on record as 74.38 % of PPV.
For the molecule `COc1cc2ccnc(C(=O)c3ccc4ccccc4c3)c2cc1OC`, the “Inhibitory activity OCR % of PPV” value in the assay on mitochondrial complex 1 is 4.34 % of PPV. Also, the “Inhibitory activity PDE10A % of PPV” value at PDE10A is reported as 0 % of PPV.
The corresponding values for `C=C(C)COc1c(C)cc(C(O)c2nccc3cc(OC)c(OC)cc23)cc1C` (stereo not shown) are 84.42 % of PPV and 73.33 % of PPV.
Take `COc1cc2ccnc(Cc3ccc(C)c(C)c3)c2cc1OC`: in the assay on mitochondrial complex 1, the “Inhibitory activity OCR % of PPV” value is 17.43 % of PPV.
On to `COc1cc2ccnc(Cc3cc(C)c(OC)c(C)c3)c2cc1OC`, for which the “Inhibitory activity OCR % of PPV” value in the assay with mitochondrial complex 1 was 91.18 % of PPV. The “Inhibitory activity PDE10A % of PPV” value at PDE10A is listed as 64.65 % of PPV.
Taken in the same sequence, the figures for `COc1cc2c(cc1OC)C(Cc1cc(C)cc(C)c1)=NCC2` were 30.09 % of PPV and 40.00 % of PPV.
Turning to `COc1cc2ccnc(C(O)c3ccc(C)c(C)c3)c2cc1OC` (stereo not shown), in the assay on mitochondrial complex 1, the “Inhibitory activity OCR % of PPV” value was 22.69 % of PPV.
For `COc1cc2ccnc(C(=O)c3cc(C)cc(C)c3)c2cc1OC`, in the assay on mitochondrial complex 1, the “Inhibitory activity OCR % of PPV” value is 9.26 % of PPV. Further, on PDE10A, the “Inhibitory activity PDE10A % of PPV” value is given as 30.52 % of PPV.
The corresponding values for `COc1cc2ccnc(Cc3ccc4c(c3)OCO4)c2cc1OC` are 11.11 % of PPV and 69.54 % of PPV.
The corresponding values for `COc1cc2ccnc(C(=O)c3cccc4ccccc34)c2cc1OC` are 31.91 % of PPV and 0 % of PPV.
Taken in the same sequence, the figures for `COc1cc2ccnc(Cc3cc(C)c(OCC(C)C)c(C)c3)c2cc1OC` were 72.88 % of PPV and 29.13 % of PPV.
On to `COc1cc2ccnc(C(O)c3ccc4c(c3)OCO4)c2cc1OC` (stereo not shown), for which, in the assay with mitochondrial complex 1, the “Inhibitory activity OCR % of PPV” value was 12.96 % of PPV. Besides, the “Inhibitory activity PDE10A % of PPV” value at PDE10A is 67.90 % of PPV.
`COc1cc2ccnc(Cc3ccc4ccccc4c3)c2cc1OC`: the “Inhibitory activity OCR % of PPV” value in the assay on mitochondrial complex 1 is 35.99 % of PPV. In addition, the “Inhibitory activity PDE10A % of PPV” value on PDE10A is recorded as 100 % of PPV.
With `COc1cc2ccnc(COc3cccc4ccccc34)c2cc1OC`, in the assay with mitochondrial complex 1, the “Inhibitory activity OCR % of PPV” value is 14.19 % of PPV.
Consider `COc1cc2ccnc(C(=O)c3cc(OC)c(OC)c(OC)c3)c2cc1OC`, for which the “Inhibitory activity OCR % of PPV” value with mitochondrial complex 1 is given as 13.63 % of PPV. At PDE10A, the “Inhibitory activity PDE10A % of PPV” value is on record as 63.39 % of PPV.
Regarding `COc1cc2ccnc(C(=O)c3ccccc3)c2cc1OC`, the “Inhibitory activity OCR % of PPV” value with mitochondrial complex 1 is given as 0 % of PPV. Further, at PDE10A, the “Inhibitory activity PDE10A % of PPV” value is reported as 26.28 % of PPV.
Taken in the same sequence, the figures for `COc1cc2ccnc(Cc3cc(C)c(O)c(C)c3)c2cc1OC` were 5.86 % of PPV and 85.02 % of PPV.
Taken in the same sequence, the figures for `COc1cc2ccnc(C(=O)c3cc(C)c(OC)c(C)c3)c2cc1OC` were 0 % of PPV and 50.92 % of PPV.
Taken in the same sequence, the figures for `COc1cc2ccnc(Cc3cc(OC)c(OC)c(OC)c3)c2cc1OC` were 34.09 % of PPV and 37.37 % of PPV.
Turning to `COc1ccc(Cc2nccc3cc(OC)c(OC)cc23)cc1`, in the assay with mitochondrial complex 1, the “Inhibitory activity OCR % of PPV” value is 36.36 % of PPV. The “Inhibitory activity PDE10A % of PPV” value at PDE10A was 79.93 % of PPV.
Taken in the same sequence, the figures for `COc1cc2c(cc1OC)C(Cc1ccc3c(c1)OCO3)=NCC2` were 5.55 % of PPV and 12.77 % of PPV.
